In US20250296971A1, “GASTRIC INHIBITORY PEPTIDE RECEPTOR LIGANDS” (priority 2021, published 2025):
Like-named read-outs stand apart in the source and are kept apart here. *1 amine or outer side, *2 acyl side, *3 side chain or, on linkers, in order; H or OH if unused. Where a SMILES comes first, the peptide text is derived from it. Bridges are numbered along the chain shown (N, C = ends). Side-chain parts run from the residue outwards. [ ]: non-standard residue; d: D form. The star is where a group is joined. DOTA(Lu) = O=C1CN2CCN3CCN(CC(=O)*)CCN(CC2)CC(=O)[O][Lu]([O]1)[O]C(=O)C3; X3 = O=C(O)CN1CCN(CC(=O)O)CCN(CC(=O)NCCCOCCOCCOCCCN*)CCN(CC(=O)O)CC1; NH(1-deoxy-D-glucityl) = OC[C@@H](O)[C@@H](O)[C@H](O)[C@@H](O)CN*; X26 = O=C(O)CN1CCN2CCN(CCN(CC(=O)*)CC1)CC(=O)[O][Zn][O]C(=O)C2; DOTA = O=C(O)CN1CCN(CC(=O)O)CCN(CC(=O)*)CCN(CC(=O)O)CC1; Trp(5-Cl) = N[C@@H](Cc1c[nH]c2ccc(Cl)cc12)C(=O)O; Pyridine(2,6-diCH2) = c1cc(C[*:1])nc(C[*:2])c1; Pro(4R-NH2) = N[C@H]1CN[C@H](C(=O)O)C1; mXylylene = c1cc(C[*:1])cc(C[*:2])c1; Glutaryl = O=C(CCCC(=O)[*:2])[*:1]; X6 = c1cc(CSCCN[*:2])nc(C[*:1])c1; Hyp = O=C(O)[C@@H]1C[C@@H](O)CN1; X1 = O=C(CN1CCC(N[*:1])CC1)[*:2]; Suc = O=C(CCC(=O)[*:2])[*:1]; Api = NC1(C(=O)O)CCNCC1; Thp = NC1(C(=O)O)CCOCC1; Aib = CC(C)(N)C(=O)O

Molecular target: T1, GIPR (CHO-K1-hGIPR cells) (Homo sapiens, UniProt P48546)
T1 construct: host or cells: CHO-K1
T1 sequence (P48546 22-466): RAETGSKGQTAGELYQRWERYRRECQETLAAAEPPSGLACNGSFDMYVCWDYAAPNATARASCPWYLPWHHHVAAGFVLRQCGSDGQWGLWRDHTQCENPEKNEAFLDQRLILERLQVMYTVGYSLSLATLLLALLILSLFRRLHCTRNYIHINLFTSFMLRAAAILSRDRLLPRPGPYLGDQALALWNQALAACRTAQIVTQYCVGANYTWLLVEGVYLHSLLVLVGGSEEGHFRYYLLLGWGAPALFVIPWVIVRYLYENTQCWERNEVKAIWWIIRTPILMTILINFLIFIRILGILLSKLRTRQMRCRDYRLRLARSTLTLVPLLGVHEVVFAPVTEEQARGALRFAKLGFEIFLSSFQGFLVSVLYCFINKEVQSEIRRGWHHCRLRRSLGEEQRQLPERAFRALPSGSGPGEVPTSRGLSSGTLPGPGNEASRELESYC
Assay: FACS binding assay
How it was run: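 Peptide binding read by flow cytometry as APC-channel median fluorescence, fitted with a four-parameter logistic to yield EC50 or IC50. Cells were hGIPR-transfected CHO-K1 in PBS with 1% FCS, detected with 1 μg/mL APC-streptavidin, 30 min on ice.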

[1] = competition with 20 nM GIP-057, 4° C., 1 hour, read-out: pIC50 Category (converted)

Row | Compound | IC50 [1] | also measured
1 | CC[C@H](C)[C@@H]1NC(=O)[C@H](CC(C)C)NC(=O)C2(CCOCC2)NC(=O)[C@@H](NC(=O)[C@@H](CC(C)C)NC(=O)[C@H](CCC(=O)O)NC(=O)[C@@H]2C[C@@H](O)CN2C(=O)[C@H](Cc2c[nH]c3ccc(Cl)cc23)NC(=O)[C@H](Cc2c[nH]c3ccccc23)NC(=O)[C@H](CC(=O)O)NC(=O)CN2CCC(NC(=O)CN3CCN4CCN5CCN(CC3)CC(=O)[O][Lu]([O]C(=O)C4)[O]C(=O)C5)CC2)CSCc2cccc(n2)CSCCNC1=O [GIP-162, LuDOTA-APAc-Asp-Trp-5Clw-Hyp-Glu-leu-[Cys(2Lut)-Thp-Leu-Ile-AET]] ({DOTA(Lu)}-[X1]DW[Trp(5-Cl)][Hyp]E[dL]C[Thp]LI; linker 8-C via X6) |  | IC50 (pIC50 Category, competition with 20 nM GIP-057, 4° C., 1 hour): < 10 nM
2 | CC[C@H](C)[C@@H]1NC(=O)[C@H](CC(C)C)NC(=O)C(C)(C)NC(=O)[C@@H](NC(=O)[C@H](CC(C)C)NC(=O)[C@H](CCC(=O)O)NC(=O)[C@@H]2C[C@@H](O)CN2C(=O)[C@H](Cc2c[nH]c3ccccc23)NC(=O)[C@H](Cc2c[nH]c3ccccc23)NC(=O)CCC(=O)O)CSCc2cccc(c2)CSC[C@@H](C(N)=O)NC1=O [GIP-319, HO-Succinyl-Trp-Trp-Hyp-Glu-Leu-[Cys(3MeBn)-Aib-Leu-Ile-Cys]-NH2] (Suc-WW[Hyp]ELC[Aib]LIC-NH2; linker 6-10 via mXylylene) |  | IC50 (competition with 20 nM GIP-057, 4° C. for 1 hour, read-out: pIC50 Category (converted)): 100 to 794 nM
3 | CC[C@H](C)[C@@H]1NC(=O)[C@H](CC(C)C)NC(=O)C2(CCN(C(=O)CN3CCN(CC(=O)O)CCN4CCN(CC3)CC(=O)[O][Zn][O]C(=O)C4)CC2)NC(=O)[C@@H](NC(=O)[C@@H](CC(C)C)NC(=O)[C@H](CCC(=O)O)NC(=O)[C@@H]2C[C@@H](O)CN2C(=O)[C@H](Cc2c[nH]c3ccc(Cl)cc23)NC(=O)[C@H](Cc2c[nH]c3ccccc23)NC(=O)[C@H](CC(=O)O)NC(=O)CCCC(=O)NC[C@H](O)[C@@H](O)[C@H](O)[C@H](O)CO)CSCc2cccc(n2)CSCCNC1=O [GIP-147, AGLU-Glutar-Asp-Trp-5Clw-Hyp-Glu-leu-[Cys(2Lut)-Apc(ZnDOTA)-Leu-Ile-AET]] ({NH(1-deoxy-D-glucityl)-Glutaryl}-DW[Trp(5-Cl)][Hyp]E[dL]C[Api](X26)LI; linker 7-C via X6) | < 10 nM | 

Further lines, with some results ahead:

Row | IC50 [1] | Compound | also measured
4 | < 10 nM | CC[C@H](C)[C@@H]1NC(=O)[C@H](CC(C)C)NC(=O)C(C)(C)NC(=O)[C@@H](NC(=O)[C@@H](CC(C)C)NC(=O)[C@H](CCC(=O)O)NC(=O)[C@@H]2CCCN2C(=O)[C@H](Cc2c[nH]c3ccc(Cl)cc23)NC(=O)[C@H](Cc2c[nH]c3ccccc23)NC(=O)[C@H](CC(=O)O)NC(=O)CCC(=O)NCCCOCCOCCOCCCNC(=O)CN2CCN(CC(=O)O)CCN(CC(=O)O)CCN(CC(=O)O)CC2)CSCc2cccc(n2)CSCCNC1=O [GIP-090, DOTA-Ttds-Asp-Trp-5Clw-Pro-Glu-leu-[Cys(2Lut)-Aib-Leu-Ile-AET]] ({X3-Suc}-DW[Trp(5-Cl)]PE[dL]C[Aib]LI; linker 7-C via X6) | 
5 | < 10 nM | CC[C@H](C)[C@@H]1NC(=O)[C@H](CC(C)C)NC(=O)C2(CCN(C(=O)CCCC(=O)NC[C@H](O)[C@@H](O)[C@H](O)[C@H](O)CO)CC2)NC(=O)[C@@H](NC(=O)[C@@H](CC(C)C)NC(=O)[C@H](CCC(=O)O)NC(=O)[C@@H]2C[C@@H](O)CN2C(=O)[C@H](Cc2c[nH]c3ccc(Cl)cc23)NC(=O)[C@H](Cc2c[nH]c3ccccc23)NC(=O)CCC(=O)O)CSCc2cccc(n2)CSC[C@@H](C(=O)NC2CCN(CC(=O)N[C@@H](CCCCNC(=O)CN3CCN(CC(=O)O)CCN(CC(=O)O)CCN(CC(=O)O)CC3)C(N)=O)CC2)NC1=O [GIP-073, HO-Succinyl-Trp-5Clw-Hyp-Glu-leu-[Cys(2Lut)-Apc(AGLU-Glutar)-Leu-Ile-Cys]-APAc-Lys(DOTA)-NH2] (Suc-W[Trp(5-Cl)][Hyp]E[dL]C[Api]([Glutaryl-NH(1-deoxy-D-glucityl)])LIC[X1]K(DOTA)-NH2; linker 6-10 via Pyridine(2,6-diCH2)) | 
6 | < 10 nM | CC[C@H](C)[C@@H]1NC(=O)[C@H](CC(C)C)NC(=O)C2(CCN(C(=O)CN3CCN(CC(=O)O)CCN(CC(=O)O)CCN(CC(=O)O)CC3)CC2)NC(=O)[C@@H](NC(=O)[C@@H](CC(C)C)NC(=O)[C@H](CCC(=O)O)NC(=O)[C@@H]2C[C@@H](N)CN2C(=O)[C@H](Cc2c[nH]c3ccc(Cl)cc23)NC(=O)[C@H](Cc2c[nH]c3ccccc23)NC(=O)[C@H](CC(=O)O)NC(=O)CCCC(=O)NC[C@H](O)[C@@H](O)[C@H](O)[C@H](O)CO)CSCc2cccc(n2)CSC[C@H](C(=O)NC2CCN(CC(=O)N[C@H](CCC(=O)NC[C@H](O)[C@@H](O)[C@H](O)[C@H](O)CO)C(N)=O)CC2)NC1=O [GIP-038, AGLU-Glutar-Asp-Trp-5Clw-Tap-Glu-leu-[Cys(2Lut)-Apc(DOTA)-Leu-Ile-cys]-APAc-glu(AGLU)-NH2] ({NH(1-deoxy-D-glucityl)-Glutaryl}-DW[Trp(5-Cl)][Pro(4R-NH2)]E[dL]C[Api](DOTA)LI[dC][X1][dE](NH(1-deoxy-D-glucityl))-NH2; linker 7-11 via Pyridine(2,6-diCH2)) | 
